Reference: PubChem BioAssay AID2060909 (Molecular Pharmacology Branch, DTP, NCI, 2025)

System: 362531-283-R-J2-PDC complex spheroid viability
Assay: Anticancer human tumor 362531-283-R-J2-PDC patient-derived colon adenocarcinoma cell line growth inhibition [RAS]
Details: for IC50: curve of first compound; for viability, T/C: stronger effect = lower value
How it was run: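 Agents were tested in combination matrices in half-log decrements from a top concentration at or near clinical Cmax (10 microM if undetermined). Targets were multi-cell spheroids of tumour lines plus HUVEC and MSC stromal cells.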

[1] = second compound 0.000949 µM, first compound 0.0316 µM
[2] = second compound 0.000949 µM, first compound 0.1 µM
[3] = second compound 0.000949 µM, first compound 0.316 µM
[4] = second compound 0.000949 µM, first compound 1 µM
[5] = second compound 0.000949 µM, first compound 3.16 µM
[6] = second compound 0.000949 µM, first compound 10 µM
[7] = second compound 0.003 µM, first compound 0.0316 µM
[8] = second compound 0.003 µM, first compound 0.1 µM
[9] = second compound 0.003 µM, first compound 0.316 µM
[10] = second compound 0.003 µM, first compound 1 µM
[11] = second compound 0.003 µM, first compound 3.16 µM
[12] = second compound 0.003 µM, first compound 10 µM
[13] = second compound 0.00949 µM, first compound 0.0316 µM
[14] = second compound 0.00949 µM, first compound 0.1 µM
[15] = second compound 0.00949 µM, first compound 0.316 µM
[16] = second compound 0.00949 µM, first compound 1 µM
[17] = second compound 0.00949 µM, first compound 3.16 µM
[18] = second compound 0.00949 µM, first compound 10 µM
[19] = second compound 0.03 µM, first compound 0.0316 µM
[20] = second compound 0.03 µM, first compound 0.1 µM
[21] = second compound 0.03 µM, first compound 0.316 µM
[22] = second compound 0.03 µM, first compound 1 µM
[23] = second compound 0.03 µM, first compound 3.16 µM
[24] = second compound 0.03 µM, first compound 10 µM
[25] = second compound 0.0949 µM, first compound 0.0316 µM
[26] = second compound 0.0949 µM, first compound 0.1 µM
[27] = second compound 0.0949 µM, first compound 0.316 µM
[28] = second compound 0.0949 µM, first compound 1 µM
[29] = second compound 0.0949 µM, first compound 3.16 µM
[30] = second compound 0.0949 µM, first compound 10 µM
[31] = second compound 0.3 µM, first compound 0.0316 µM
[32] = second compound 0.3 µM, first compound 0.1 µM
[33] = second compound 0.3 µM, first compound 0.316 µM
[34] = second compound 0.3 µM, first compound 1 µM
[35] = second compound 0.3 µM, first compound 3.16 µM
[36] = second compound 0.3 µM, first compound 10 µM
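Note: spheroids exposed to the agents for 7 days before readout.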
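Throughout, for viability, T/C: luminescence viability as percent of DMSO vehicle control wells.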

CC1(C)CCC(Nc2ncc(C(F)(F)F)c(-c3c[nH]c4c(P(C)(C)=O)c(C#N)ccc34)n2)CN1 (stereo unspecified) + C=CC(=O)N1CCN(c2nc(OCC3CCCN3C)nc3c(F)c(-c4nc(N)cc(C)c4C(F)(F)F)c(Cl)cc23)C(C)C1
IC50 (second compound 0.00316 µM): > 300 nM
IC50 (second compound 0.01 µM): > 300 nM
IC50 (second compound 0.0316 µM): > 300 nM
IC50 (second compound 0.1 µM): > 300 nM
IC50 (second compound 0.316 µM): > 300 nM
IC50 (second compound 1 µM): > 300 nM
viability, T/C (second compound 0.00316 µM, first compound 0.000949 µM): 96.5%
viability, T/C (second compound 0.00316 µM, first compound 0.003 µM): 104%
viability, T/C (second compound 0.00316 µM, first compound 0.00949 µM): 103%
viability, T/C (second compound 0.00316 µM, first compound 0.03 µM): 100%
viability, T/C (second compound 0.00316 µM, first compound 0.0949 µM): 107%
viability, T/C (second compound 0.00316 µM, first compound 0.3 µM): 99.1%
viability, T/C (second compound 0.01 µM, first compound 0.000949 µM): 103%
viability, T/C (second compound 0.01 µM, first compound 0.003 µM): 112%
viability, T/C (second compound 0.01 µM, first compound 0.00949 µM): 104%
viability, T/C (second compound 0.01 µM, first compound 0.03 µM): 98.8%
viability, T/C (second compound 0.01 µM, first compound 0.0949 µM): 109%
viability, T/C (second compound 0.01 µM, first compound 0.3 µM): 101%
viability, T/C (second compound 0.0316 µM, first compound 0.000949 µM): 105%
viability, T/C (second compound 0.0316 µM, first compound 0.003 µM): 105%
viability, T/C (second compound 0.0316 µM, first compound 0.00949 µM): 103%
viability, T/C (second compound 0.0316 µM, first compound 0.03 µM): 98.7%
viability, T/C (second compound 0.0316 µM, first compound 0.0949 µM): 106%
viability, T/C (second compound 0.0316 µM, first compound 0.3 µM): 96.5%
viability, T/C (second compound 0.1 µM, first compound 0.000949 µM): 102%
viability, T/C (second compound 0.1 µM, first compound 0.003 µM): 105%
viability, T/C (second compound 0.1 µM, first compound 0.00949 µM): 104%
viability, T/C (second compound 0.1 µM, first compound 0.03 µM): 103%
viability, T/C (second compound 0.1 µM, first compound 0.0949 µM): 104%
viability, T/C (second compound 0.1 µM, first compound 0.3 µM): 107%
viability, T/C (second compound 0.316 µM, first compound 0.000949 µM): 109%
viability, T/C (second compound 0.316 µM, first compound 0.003 µM): 103%
viability, T/C (second compound 0.316 µM, first compound 0.00949 µM): 111%
viability, T/C (second compound 0.316 µM, first compound 0.03 µM): 98.6%
viability, T/C (second compound 0.316 µM, first compound 0.0949 µM): 112%
viability, T/C (second compound 0.316 µM, first compound 0.3 µM): 93.5%
viability, T/C (second compound 1 µM, first compound 0.000949 µM): 99.2%
viability, T/C (second compound 1 µM, first compound 0.003 µM): 101%
viability, T/C (second compound 1 µM, first compound 0.00949 µM): 98.9%
viability, T/C (second compound 1 µM, first compound 0.03 µM): 108%
viability, T/C (second compound 1 µM, first compound 0.0949 µM): 113%
viability, T/C (second compound 1 µM, first compound 0.3 µM): 105%

C[C@@H](NC(=O)c1ncnc(N)c1Cl)c1ncc(C(=O)Nc2cc(C(F)(F)F)c(Cl)cn2)s1 + CCn1c(-c2cc(N3CCN(C)CC3)cnc2C(C)OC)c2c3cc(ccc31)-c1csc(n1)CC(NC(=O)C1CC1C)C(=O)N1CCCC(N1)C(=O)OCC(C)(C)C2
IC50 (second compound 0.000949 µM): > 10000 nM
IC50 (second compound 0.003 µM): > 10000 nM
IC50 (second compound 0.00949 µM): > 10000 nM
IC50 (second compound 0.03 µM): > 10000 nM
IC50 (second compound 0.0949 µM): > 10000 nM
IC50 (second compound 0.3 µM): 3740 nM
viability, T/C [1]: 107%
viability, T/C [2]: 110%
viability, T/C [3]: 94.3%
viability, T/C [4]: 103%
viability, T/C [5]: 96.1%
viability, T/C [6]: 78.5%
viability, T/C [7]: 106%
viability, T/C [8]: 104%
viability, T/C [9]: 93.3%
viability, T/C [10]: 94.3%
viability, T/C [11]: 85.6%
viability, T/C [12]: 69.6%
viability, T/C [13]: 94%
viability, T/C [14]: 100%
viability, T/C [15]: 95.9%
viability, T/C [16]: 96.9%
viability, T/C [17]: 86.3%
viability, T/C [18]: 66%
viability, T/C [19]: 107%
viability, T/C [20]: 92.6%
viability, T/C [21]: 91.7%
viability, T/C [22]: 92%
viability, T/C [23]: 78%
viability, T/C [24]: 62.1%
viability, T/C [25]: 79.3%
viability, T/C [26]: 87%
viability, T/C [27]: 78.7%
viability, T/C [28]: 73.7%
viability, T/C [29]: 76.2%
viability, T/C [30]: 62.5%
viability, T/C [31]: 56.6%
viability, T/C [32]: 56.2%
viability, T/C [33]: 58.5%
viability, T/C [34]: 59.9%
viability, T/C [35]: 72%
viability, T/C [36]: 26.3%

CC(Nc1ccc2c(c1)OCCn1cc(N3C(=O)OCC3C(F)F)nc1-2)C(N)=O (stereo unspecified) + CCn1c(-c2cc(N3CCN(C)CC3)cnc2C(C)OC)c2c3cc(ccc31)-c1csc(n1)CC(NC(=O)C1CC1C)C(=O)N1CCCC(N1)C(=O)OCC(C)(C)C2
IC50 (second compound 0.000949 µM): 1290 nM
IC50 (second compound 0.003 µM): 1610 nM
IC50 (second compound 0.00949 µM): 952 nM
IC50 (second compound 0.03 µM): 849 nM
IC50 (second compound 0.0949 µM): 431 nM
IC50 (second compound 0.3 µM): < 31.6 nM
viability, T/C [1]: 98.7%
viability, T/C [2]: 107%
viability, T/C [3]: 86.6%
viability, T/C [4]: 58%
viability, T/C [5]: 26.4%
viability, T/C [6]: 27.9%
viability, T/C [7]: 103%
viability, T/C [8]: 98.8%
viability, T/C [9]: 93%
viability, T/C [10]: 59.5%
viability, T/C [11]: 36.7%
viability, T/C [12]: 27.5%
viability, T/C [13]: 96.8%
viability, T/C [14]: 105%
viability, T/C [15]: 64.9%
viability, T/C [16]: 56.2%
viability, T/C [17]: 32.4%
viability, T/C [18]: 32.3%
viability, T/C [19]: 97.2%
viability, T/C [20]: 89.6%
viability, T/C [21]: 70.7%
viability, T/C [22]: 45.8%
viability, T/C [23]: 38.7%
viability, T/C [24]: 34.9%
viability, T/C [25]: 88.6%
viability, T/C [26]: 73%
viability, T/C [27]: 51.9%
viability, T/C [28]: 41.7%
viability, T/C [29]: 32.5%
viability, T/C [30]: 29.4%
viability, T/C [31]: 32.6%
viability, T/C [32]: 28.3%
viability, T/C [33]: 11.2%
viability, T/C [34]: 3.11%
viability, T/C [35]: 3.38%
viability, T/C [36]: 3.53%
